From US9376433B2, “(AZA-)isoquinolinone derivatives” (MERCK PATENT GMBH, priority 2012, dated 2016)

Legend:
TNKS1 = target: T1, TNKS1 (Homo sapiens, UniProt O95271); assay: TNKS1 activity ELISA (autoparsylation assay); assay type: biochemical; details: GST-tagged Tnks-1 (1023-1327 aa), luminescence
T1 construct: GST-tagged Tnks-1 (1023-1327 aa, prepared in-house); made in house
Protocol: (§1) Description of the TNKS1 and TNKS2 ELISA Assay
(§2) Biochemical activity testing of TNKS 1 and 2: activity ELISA (Autoparsylation assay)
(§3) For analysis of autoparsylation activity of TNKS 1 and 2 an activity ELISA iss performed: In the first step GST tagged TNKS is captured on a Glutathione coated plate. Then the activity assay with biotinylated NAD is performed in the absence/presence of the compounds. During the enzymatic reaction GST tagged TNKS transfers biotinylated ADP-ribose to itself from biotinylated NAD as co-substrate. For the detection streptavidin-HRP conjugate is added that binds to the biotinylated TNKS and is thereby captured to the plates. The amount of biotinylated resp. autoparsylated TNKS is detected with a luminescence substrate for HRP. The level of the luminescence signal correlats directly with the amount of autoparsylated TNKS and therefore with activity of TNKS.
(§4) The acitivity ELISA is performed in 384 well Glutathione coated microtiter plates (Express capture Glutathione coated plate, Biocat, Heidelberg, Germany). The plates are pre-equilibrated with PBS. Then the plates are incubated with 50 μl 20 ng/well GST-tagged Tnks-1 (1023-1327 aa, prepared in-house), respectively GST-tagged Tnks-2 (873-1166 aa, prepared in-house) in assay buffer (50 mM HEPES, 4 mM Mg-chloride, 0.05% Pluronic F-68, 2 mM DTT, pH 7.7) overnight at 4° C. The plates are washed 3 times with PBS-Tween-20. The wells are blocked by incubation at room temperature for 20 minutes with 50 μl blocking buffer (PBS, 0.05% Tween-20, 0.5% BSA). Afterwards the plates are washed 3 times with PBS-Tween-20. The enzymatic reaction is performed in 50 μl reaction solution (50 mM HEPES, 4 mM Mg-chloride, 0.05% Pluronic F-68, 1.4 mM DTT, 0.5% DMSO, pH 7.7) with10 μM bio-NAD (Biolog, Life science Inst., Bremen, Germany) as co-substrate in the absence or presence of the test compound (10 dilution concentrations) for 1 hour at 30° C. The reaction is stopped by 3 times washing with PBS-Tween-20. For the detection 50 μl of 20 ng/μl Streptavidin, HRP conjugate (MoBiTec, Göttingen, Germany) in PBS/0.05% Tween-20/0.01% BSA are added and the plates are incubated for 30 minutes at room temperature. After three times washing with PBS-Tween-20 50 μl of SuperSignal ELISA Femto Maximum sensitivity substrate solution (ThermoFisherScientific (Pierce), Bonn, Germany) are added. Following a 1 minute incubation at room temperature luminescence signals are measured with an Envision multimode reader (Perkin Elmer LAS Germany GmbH) at 700 nm. The full value used is the inhibitor-free reaction. The pharmacological zero value used is XAV-939 (Tocris) in a final concentration of 5 μM. The inhibitory values (IC50) are determined using either the program Symyx Assay Explorer® or Condosseo® from GeneData.

TNKS2 = target: T2, TNKS2 (Homo sapiens, UniProt Q9H2K2); assay: TNKS2 activity ELISA (autoparsylation assay); assay type: biochemical; details: GST-tagged Tnks-2 (873-1166 aa), luminescence
T2 construct: GST-tagged Tnks-2 (873-1166 aa, prepared in-house); made in house
T2 sequence (Q9H2K2 873-1166): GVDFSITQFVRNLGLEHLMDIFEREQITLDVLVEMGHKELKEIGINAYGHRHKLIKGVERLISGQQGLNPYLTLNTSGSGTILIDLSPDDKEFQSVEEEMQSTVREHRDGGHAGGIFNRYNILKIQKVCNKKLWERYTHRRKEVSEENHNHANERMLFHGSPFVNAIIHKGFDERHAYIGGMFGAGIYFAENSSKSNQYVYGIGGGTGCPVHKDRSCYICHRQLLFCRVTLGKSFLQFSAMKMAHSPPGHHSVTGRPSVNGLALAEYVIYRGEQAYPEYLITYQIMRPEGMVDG
Protocol: as §1, §2, §3, §4

T1 sequence (O95271 1023-1327): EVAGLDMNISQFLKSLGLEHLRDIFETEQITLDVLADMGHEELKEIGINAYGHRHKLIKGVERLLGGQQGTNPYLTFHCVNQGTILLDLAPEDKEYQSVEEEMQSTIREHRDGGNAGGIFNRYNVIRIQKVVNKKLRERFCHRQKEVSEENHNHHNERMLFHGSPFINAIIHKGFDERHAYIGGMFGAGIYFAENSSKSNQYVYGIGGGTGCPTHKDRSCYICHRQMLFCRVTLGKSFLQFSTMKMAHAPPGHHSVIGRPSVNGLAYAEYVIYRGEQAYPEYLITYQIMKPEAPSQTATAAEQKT

Structure (SMILES) | IC50 (TNKS1) [nM] | IC50 (TNKS2) [nM]
CC(C)(O)c1ccc(-c2cc3ccccc3c(=O)[nH]2)cc1 [Compound A3, 3-[4-(1-hydroxy-1-methyl-ethyl)-phenyl]-2H-isoquinolin-1-one] | < 300 | < 300
Cn1cc(-c2ccc(-c3cc4ccncc4c(=O)[nH]3)cc2)cn1 [Compound A14, 3-[4-(1-Methyl-1H-pyrazol-4-yl)-phenyl]-2H-[2,7]naphthyridin-1-one] | < 300 | < 300
Cc1ccc(-c2cc3ccc(F)cc3c(=O)[nH]2)cc1 [Compound A9, 7-fluoro-3-p-tolyl-2H-isoquinolin-1-one] | < 300 | < 300
C=C(C)c1ccc(-c2cc3ccc(F)cc3c(=O)[nH]2)cc1 [Compound A17, 7-fluoro-3-(4-isopropenyl-phenyl)-2H-isoquinolin-1-one] | < 300 | < 300
CC(C)(N)c1ccc(-c2cc3ccc(F)cc3c(=O)[nH]2)cc1 [Compound A20, 3-[4-(1-amino-1-methyl-ethyl)phenyl]-7-fluoro-2H-isoquinolin-1-one] | < 300 | < 300
CC(C)(O)c1ccc(-c2cc3ccncc3c(=O)[nH]2)cc1 [Compound A24, 3-[4-(1-hydroxy-1-methyl-ethyl)phenyl]-2H-2,7-naphthyridin-1-one] | < 300 | < 300
CC(C)(O)c1ccc(-c2cc3cc(F)ccc3c(=O)[nH]2)cc1 [Compound A5, 6-fluoro-3-[4-(1-hydroxy-1-methyl-ethyl)-phenyl]-2H-isoquinolin-1-one] | < 300 | < 300
Cc1ccc(-c2cc3c(F)cccc3c(=O)[nH]2)cc1 [Compound A12, 5-fluoro-3-p-tolyl-2H-isoquinolin-1-one] | < 300 | < 300
CC(C)(O)c1ccc(-c2cc3cnccc3c(=O)[nH]2)cc1 [Compound A23, 3-[4-(1-hydroxy-1-methyl-ethyl)phenyl]-2H-2,6-naphthyridin-1-one] | < 300 | < 300
CC(C)(O)c1ccc(-c2cc3c(F)cccc3c(=O)[nH]2)cc1 [Compound A28, 5-fluoro-3-[4-(1-hydroxy-1-methyl-ethyl)phenyl]-2H-isoquinolin-1-one] | < 300 | < 300
CC(C)(OCCO)c1ccc(-c2cc3ccc(F)cc3c(=O)[nH]2)cc1 [Compound A16, 7-fluoro-3-{4-[1-(2-hydroxy-ethoxy)-1-methyl-ethyl]-phenyl}-2H-isoquinolin-1-one] | < 300 | < 300
Cn1cc(-c2ccc(-c3cc4ccc(F)cc4c(=O)[nH]3)cc2)cn1 [Compound A18, 7-fluoro-3-[4-(1-methyl-1H-pyrazol-4-yl)-phenyl]-2H-isoquinolin-1-one] | < 300 | < 300
Cc1ccc(-c2cc3c(C)cccc3c(=O)[nH]2)cc1 [Compound A29, 5-methyl-3-(p-tolyl)-2H-isoquinolin-1-one] | < 300 | < 300
CC(C)(O)c1ccc(-c2cc3c(F)cc(F)cc3c(=O)[nH]2)cc1 [Compound A33, 5,7-difluoro-3-[4-(1-hydroxy-1-methyl-ethyl)-phenyl]-2H-isoquinolin-1-one] | < 300 | < 300
CC(C)(O)c1ccc(-c2cc3cccc(F)c3c(=O)[nH]2)cc1 [Compound A27, 8-fluoro-3-[4-(1-hydroxy-1-methyl-ethyl)phenyl]-2H-isoquinolin-1-one] | < 300 | < 300
CC(C)(O)c1ccc(-c2cc3ccc(F)cc3c(=O)[nH]2)cc1 [Compound A6, 7-fluoro-3-[4-(1-hydroxy-1-methyl-ethyl)-phenyl]-2H-isoquinolin-1-one] | < 300 | < 300
COC(C)(C)c1ccc(-c2cc3ccccc3c(=O)[nH]2)cc1 [Compound A15, 3-[4-(1-methoxy-1-methyl-ethyl)-phenyl]-2H-isoquinolin-1-one] | < 300 | < 300
Cc1ccc(-c2cc3cccc(F)c3c(=O)[nH]2)cc1 [Compound A11, 8-fluoro-3-p-tolyl-2H-isoquinolin-1-one] | < 300 | < 300
Cc1ccc(-c2cc3cc(F)ccc3c(=O)[nH]2)cc1 [Compound A10, 6-fluoro-3-p-tolyl-2H-isoquinolin-1-one] | < 300 | < 300
